Assay results: patent US6344576B1, “Phospholipid-analogous compounds” (Max-Planck-Gesellschaft zur Förderung der Wissenschaften …, priority 1997, dated 2002)

What was measured:
[1] = Use as solubilizer for substances of low solubility in water
[2] = Behaviour in water (solubility, gel formation, suitability for intravenous administration); assay type: physicochemical

Compound	suitability as solubilizer for substances of low solubility in water [1]	gel formation in water [2]
1,2-Dioleoyl-sn-glycero-3-phospho-N,N-dimethyl-N-dihydroxypropyl-ethylammonium [Example 14]	proved useful	–
CCCCCCCC/C=C\CCCCCCCCCCCCOP(=O)([O-])OCC[N+](C)(C)C [Erucylphosphocholine]	–	forms gel-like structures in water
CCCCCCCC/C=C\CCCCCCCC(=O)OC[C@H](COP(=O)([O-])OCCC[N+](C)(C)C)OC(=O)CCCCCCC/C=C\CCCCCCCC [Example 85, 1,2-Dioleoyl-sn-glycero-3-phospho-N,N,N-trimethyl-propylammonium]	proved useful	–
CCCCCCCC/C=C\CCCCCCCCCCCC(=O)OC[C@@H](O)COP(=O)([O-])OCCC[N+](C)(C)C [Example 139, 1-Erucoyl-sn-glycero-3-phospho-N,N,N-trimethyl-propylammonium]	proved useful	–
